Laboratory results published in patent US7851637B2, “Compounds and methods for inhibiting the interaction of BCL proteins with binding partners” (Infinity Pharmaceuticals, Inc., priority 2004, dated 2010).

Experiments:
Bcl-2 = Bcl-2 (Homo sapiens, UniProt P10415); assay: Bcl-2 binding affinity analysis (fluorescence polarization binding assay)
Method in brief: (§1)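 FP readout; quantitative in vitro binding format; same method applied to both anti-apoptotic proteins.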

Bcl-xL = Bcl-xL (Homo sapiens, UniProt Q07817); assay: Bcl-xL binding affinity analysis (fluorescence polarization binding assay); design: scale not given here
Method in brief: as §1

Chain of Bcl-xL (Q07817 whole entry): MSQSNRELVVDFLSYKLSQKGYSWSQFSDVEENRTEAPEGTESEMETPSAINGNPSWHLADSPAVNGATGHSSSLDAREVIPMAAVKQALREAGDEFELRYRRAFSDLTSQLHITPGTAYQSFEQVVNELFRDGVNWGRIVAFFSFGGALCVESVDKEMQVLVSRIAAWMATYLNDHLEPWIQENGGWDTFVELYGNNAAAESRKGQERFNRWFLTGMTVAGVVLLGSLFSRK
Chain of Bcl-2 (P10415 whole entry): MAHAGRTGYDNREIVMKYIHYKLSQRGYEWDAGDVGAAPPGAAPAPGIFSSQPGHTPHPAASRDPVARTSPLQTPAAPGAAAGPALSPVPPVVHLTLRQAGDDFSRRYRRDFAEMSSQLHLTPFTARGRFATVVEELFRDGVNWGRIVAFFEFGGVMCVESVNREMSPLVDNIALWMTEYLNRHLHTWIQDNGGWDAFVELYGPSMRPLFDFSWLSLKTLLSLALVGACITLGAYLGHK

Structure (SMILES)	Ki (Bcl-2) [nM]	Bcl-XL binding affinity Ki (Bcl-xL)
CC(C)C[C@@H](CN(C)C)N(Cc1ccccc1)Cc1cccc(CN2O[C@@H](CO)[C@@H]([C@H](C)O)[C@H]2C(=O)NCCCN(C)c2ccccc2)c1 [Compound 531]	800 to 6000	♯
C[C@H](O)[C@@H]1[C@H](CO)ON(Cc2cccc(CN(CCN(C)C)Cc3ccccc3)c2)[C@@H]1C(=O)NCCc1cccc(-c2ccccc2)c1 [Compound 513]	800 to 6000	♯
C[C@H](O)[C@@H]1[C@H](CO)ON(Cc2cccc(CN(CCN(C)C)Cc3ccccc3)c2)[C@@H]1C(=O)NCCCc1ccccc1 [Compound 525]	6000 to 50000	♯
COCCNC(=O)[C@@H]1[C@H]([C@H](C)O)[C@H](CO)ON1Cc1cccc(CN(Cc2ccccc2)[C@@H](CC(C)C)CN(C)C)c1 [Compound 535]	6000 to 50000	♯
C[C@@H](O)[C@H]1[C@@H](CO)ON(Cc2cccc(C#CC(C)(O)c3ccccc3)c2)[C@H]1C(=O)NCC1CCCCC1 (some centres unmarked) [Compound 37]	6000 to 50000	♯
CC(C)CCNC(=O)[C@@H]1[C@H]([C@H](C)O)[C@H](CO)ON1Cc1cccc(CN(Cc2ccccc2)[C@@H](CC(C)C)CN(C)C)c1 [Compound 533]	800 to 6000	♯
C[C@H](O)[C@@H]1[C@H](CO)ON(Cc2ccc(C#CCN(C)Cc3ccccc3)cc2)[C@@H]1C(=O)NCCC1=CCCCC1 [Compound 38]	> 50000	♯♯
C[C@@H]1[C@@H](NC(=O)[C@@H]2[C@H]([C@H](C)O)[C@H](CO)ON2CCCCN(CCc2ccccc2)CCN(C)C)C[C@H]2C[C@@H]1C2(C)C [Compound 546]	800 to 6000	♯
CNCC#Cc1cccc(CN2O[C@@H](CO)[C@@H]([C@H](C)O)[C@H]2C(=O)N[C@H]2C[C@H]3CC([C@@H]2C)C3(C)C)c1 [Compound 50]	800 to 6000	♯
COC(=O)[C@@H](NC(=O)[C@@H]1[C@H]([C@H](C)O)[C@H](CO)ON1Cc1cccc(C#CC2(N)CCCCC2)c1)C(C)C [Compound 47]	> 50000	♯♯
C[C@@H]1[C@@H](NC(=O)[C@@H]2[C@H]([C@H](C)O)[C@H](CO)ON2Cc2cccc(-c3ccc(S(=O)(=O)N(C)C)cc3)c2)C[C@H]2C[C@@H]1C2(C)C [Compound 130]	< 800	♯♯
C[C@H](O)[C@@H]1[C@H](CO)ON(Cc2cccc(CN(CCN(C)C)Cc3ccccc3)c2)[C@@H]1C(=O)Nc1cccc(-c2ccccc2)c1 [Compound 515]	< 800	♯
C[C@@H](O)[C@H]1[C@@H](CO)ON(Cc2cccc(C#CC(O)c3ccc(-c4ccccn4)cc3)c2)[C@H]1C(=O)NCCCN(C)c1ccccc1 (some centres unmarked) [Compound 252]	< 800	♯
CCCCC[C@H](O)C#Cc1ccc(CN2O[C@@H](CO)[C@@H]([C@H](C)O)[C@H]2C(=O)NCCCN(C)c2ccccc2)cc1 [Compound 46]	> 50000	♯
C[C@@H]1[C@@H](NC(=O)[C@@H]2[C@H]([C@H](C)O)[C@H](CO)ON2CCCCN(CCN(C)C)Cc2ccccc2-c2ccccc2)C[C@H]2C[C@@H]1C2(C)C [Compound 551]	< 800	♯
C[C@@H]1[C@@H](NC(=O)[C@@H]2[C@H]([C@H](C)O)[C@H](CO)ON2Cc2cccc(-c3cccc(S(C)(=O)=O)c3)c2)C[C@H]2C[C@@H]1C2(C)C [Compound 200]	< 800	♯
CON(C)C(=O)c1ccc(-c2cccc(CN3O[C@@H](CO)[C@@H]([C@H](C)O)[C@H]3C(=O)N[C@H]3C[C@H]4C[C@@H]([C@@H]3C)C4(C)C)c2)cc1 [Compound 124]	< 800	♯

More lines, now with the values ahead:

Ki (Bcl-2) [nM]	Bcl-XL binding affinity Ki (Bcl-xL)	Structure (SMILES)
< 800	♯	C[C@@H]1[C@@H](NC(=O)[C@@H]2[C@H]([C@H](C)O)[C@H](CO)ON2Cc2cccc(-c3cccc(C(=O)NCCN(C)C)c3)c2)C[C@H]2C[C@@H]1C2(C)C [Compound 107]
< 800	♯	C[C@@H]1C(NC(=O)[C@@H]2[C@H]([C@H](C)O)[C@H](CO)ON2Cc2cccc(-c3ccc(NCCN(C)C)cc3)c2)C[C@@H]2CC1C2(C)C (some centres unmarked) [Compound 276]
< 800	♯	C[C@@H]1[C@@H](NC(=O)[C@@H]2[C@H]([C@H](C)O)[C@H](CO)ON2Cc2cccc(-c3cccc(C(=O)N(C)CCCN(C)C)c3)c2)C[C@H]2C[C@@H]1C2(C)C [Compound 148]
< 800	♯	C[C@@H]1[C@@H](NC(=O)[C@@H]2[C@H]([C@H](C)O)[C@H](CO)ON2Cc2cccc(N(CCCN(C)C)CCCN(C)C)c2)C[C@H]2C[C@@H]1C2(C)C [Compound 583]
< 800	♯	CCN(CC)CCNC(=O)c1cccc(-c2cccc(CN3O[C@@H](CO)[C@@H]([C@H](C)O)[C@H]3C(=O)N[C@H]3C[C@H]4C[C@@H]([C@@H]3C)C4(C)C)c2)c1 [Compound 112]
< 800	♯	COc1c(CN(CCN(C)C)Cc2ccccc2)cccc1CN1O[C@@H](CO)[C@@H]([C@H](C)O)[C@H]1C(=O)NC1C[C@H]2C[C@@H]([C@@H]1C)C2(C)C (some centres unmarked) [Compound 197]
< 800	♯	COCCOc1cccc(CN(CCN(C)C)Cc2cccc(CN3OC(CO)C(C(C)O)C3C(=O)NC3CC4CC(C3C)C4(C)C)c2)c1 (centres unmarked) [Compound 406]
< 800	♯♯	C[C@@H]1[C@@H](NC(=O)[C@@H]2[C@H]([C@H](C)O)[C@H](CO)ON2Cc2cccc(-c3cccc(C(=O)NCCCO)c3)c2)C[C@H]2C[C@@H]1C2(C)C [Compound 121]
< 800	♯	COc1cccc(CN(CCN(C)C)Cc2cccc(CN3OC(CO)C(C(C)O)C3C(=O)NC3CC4CC(C3C)C4(C)C)c2)c1 (centres unmarked) [Compound 381]
< 800	♯	CSc1cccc(-c2cccc(CN3O[C@@H](CO)[C@@H]([C@H](C)O)[C@H]3C(=O)N[C@H]3C[C@H]4C[C@@H]([C@@H]3C)C4(C)C)c2)c1 [Compound 201]
< 800	♯	C[C@@H]1[C@@H](NC(=O)[C@@H]2[C@H]([C@H](C)O)[C@H](CO)ON2Cc2cccc(-c3cccc(C(N)=O)c3)c2)C[C@H]2C[C@@H]1C2(C)C [Compound 219]
< 800	♯	CC(C)NC(=O)c1cccc(-c2cccc(CN3O[C@@H](CO)[C@@H]([C@H](C)O)[C@H]3C(=O)N[C@H]3C[C@H]4C[C@@H]([C@@H]3C)C4(C)C)c2)c1 [Compound 217]
< 800	♯	C[C@@H]1[C@@H](NC(=O)[C@@H]2[C@H]([C@H](C)O)[C@H](CO)ON2Cc2cccc(NCCCN(C)C)c2)C[C@H]2C[C@@H]1C2(C)C [Compound 582]
< 800	♯♯	C[C@@H]1[C@@H](NC(=O)[C@@H]2[C@H]([C@H](C)O)[C@H](CO)ON2Cc2cccc(-c3cccc(C(=O)NCCc4c[nH]cn4)c3)c2)C[C@H]2C[C@@H]1C2(C)C [Compound 127]
< 800	♯♯	C[C@H](O)[C@@H]1[C@H](CO)ON(Cc2cccc(-c3cccc(NS(C)(=O)=O)c3)c2)[C@@H]1C(=O)NC1C[C@H]2C[C@@H]([C@@H]1C)C2(C)C (some centres unmarked) [Compound 181]
< 800	♯	C[C@@H]1[C@@H](NC(=O)[C@@H]2[C@H]([C@H](C)O)[C@H](CO)ON2Cc2cccc(-c3cccc(C(=O)NCCN4CCCC4)c3)c2)C[C@H]2C[C@@H]1C2(C)C [Compound 215]
< 800	♯	C[C@@H]1[C@@H](NC(=O)[C@@H]2[C@H]([C@H](C)O)[C@H](CO)ON2Cc2cccc(-c3cccc(C(=O)NCCN(CCO)CCO)c3)c2)C[C@H]2C[C@@H]1C2(C)C [Compound 131]
< 800	♯	COc1cccc(O)c1CN(Cc1cccc(CN2OC(CO)C(C(C)O)C2C(=O)NC2CC3CC(C2C)C3(C)C)c1)C(CC(C)C)CN(C)C (centres unmarked) [Compound 336]
< 800	♯	CC(=O)Nc1ccc(-c2cccc(CN3O[C@@H](CO)[C@@H]([C@H](C)O)[C@H]3C(=O)NC3C[C@H]4C[C@@H]([C@@H]3C)C4(C)C)c2)cc1 (some centres unmarked) [Compound 294]
< 800	♯	CC(O)C1C(CO)ON(Cc2cccc(C(=O)NC(CC3CCCCC3)CN(C)C)c2)C1C(=O)NC1CC2CC(C1C)C2(C)C (centres unmarked) [Compound 499]
< 800	♯♯	C[C@@H]1[C@@H](NC(=O)[C@@H]2[C@H]([C@H](C)O)[C@H](CO)ON2Cc2cccc(-c3ccc(S(N)(=O)=O)cc3)c2)C[C@H]2C[C@@H]1C2(C)C [Compound 120]
< 800	♯	C[C@@H]1[C@@H](NC(=O)[C@@H]2[C@H]([C@H](C)O)[C@H](CO)ON2Cc2cccc(N3CCN(C(=O)NCc4ccccc4)CC3)c2)C[C@H]2C[C@@H]1C2(C)C [Compound 260]
< 800	♯	CC(O)C1C(CO)ON(Cc2cccc(C(=O)NC(CN(C)C)c3ccccc3)c2)C1C(=O)NC1CC2CC(C1C)C2(C)C (centres unmarked) [Compound 506]
< 800	♯	COc1cccc(CN(Cc2cccc(CN3OC(CO)C(C(C)O)C3C(=O)NC3CC4CC(C3C)C4(C)C)c2)C(CC(C)C)CN(C)C)c1OC (centres unmarked) [Compound 304]
< 800	♯	C[C@@H]1[C@@H](NC(=O)[C@@H]2[C@H]([C@H](C)O)[C@H](CO)ON2Cc2cccc(-c3ccc4c(c3)C(=O)N(C)C4=O)c2)C[C@H]2C[C@@H]1C2(C)C [Compound 128]
< 800	♯♯	CC(C)CNC(=O)c1cccc(-c2cccc(CN3O[C@@H](CO)[C@@H]([C@H](C)O)[C@H]3C(=O)N[C@H]3C[C@H]4C[C@@H]([C@@H]3C)C4(C)C)c2)c1 [Compound 151]
